These are literature values, as cited in patent US20070202162A1, “EXTENDED RELEASE PHARMACEUTICAL COMPOSITIONS” (priority 2006, published 2007).

Counter-ions that a name gives are not always drawn.

For the data set the following is noted: in water and ethanol.

On to `CC(C)NCC(O)COc1cccc2ccccc12` (stereo not shown) [Propranolol hydrochloride, 1-(Isopropylamino)-3-(1-naphthyloxy)-2-propanol], for which the solubility result is “readily soluble in water and ethanol”.
